Measured values published in patent publication US6448228B1, “Dipeptide compounds having a high fungicidal activity and their agronomic use” (Isagro Ricerca S.r.l., priority 1998, dated 2002).
Read-outs that look alike come from different tables or passages of the source.

Tested on: Plasmopara viticola
Test: Fungicidal effectiveness against Peronospora (Plasmopara viticola) in preventive leaf application on vines
Type: in vivo
Conditions: 168 h, read-out: Effectiveness expressed as leaf diffusion control % of the disease with respect to a non-treated reference
Protocol: Determination of the Fungicidal Effectiveness Against Peronospora (Plasmapara viticola) of Compounds Having Formula (I) and (II) in Preventive Leaf Application
Cultivar Dolcetto vine leaves, grown in vases in a conditioned environment (20±1° C.), 70% relative humidity), are treated by spraying both sides of the leaves with compounds 1-7 dispersed in a hydroacetone solution at 20% by volume of acetone.
After remaining 24 hours in a conditioned environment, the plants are sprayed on both sides of the leaf with an aqueous suspension of conidia of Plasmopara viticola (200,000 conidia per cm^3).
The plants are kept in a humidity saturated environment, at 21° C., for the incubation period of the fungus and, at the end of this period (7 days), the fungicidal activity is evaluated according to an evaluation percentage scale from 100 (healthy plant) to 0 (completely infected plant).

[1] = Dose 0.45 g/hl, preventive leaf application on Dolcetto vines, inoculation 24 hours after treatment, evaluation after 7 days, scale 100 (healthy plant) to 0 (completely infected plant)
[2] = Dose 1.8 g/hl, preventive leaf application on Dolcetto vines, inoculation 24 hours after treatment, evaluation after 7 days, scale 100 (healthy plant) to 0 (completely infected plant)
[3] = Dose 7.5 g/hl, preventive leaf application on Dolcetto vines, inoculation 24 hours after treatment, evaluation after 7 days, scale 100 (healthy plant) to 0 (completely infected plant)
[4] = Dose 30 g/hl, preventive leaf application on Dolcetto vines, inoculation 24 hours after treatment, evaluation after 7 days, scale 100 (healthy plant) to 0 (completely infected plant)

SMILES | pest or weed control at 0.45 g/hl [1] | pest or weed control at 1.8 g/hl [2] | pest or weed control at 7.5 g/hl [3] | pest or weed control at 30 g/hl [4] | pest or weed control at 0.45 g/hl | pest or weed control at 1.8 g/hl | pest or weed control at 7.5 g/hl | pest or weed control at 30 g/hl
COC(=O)CC(NC(=O)[C@@H](NC(=O)OC(C)C)C(C)C)c1ccc(Cl)cc1 (mixture of isomers) [Compound 1, methyl (±)RS-[3-(N-isopropoxy-carbonyl-S-valinyl)amino]-3-(4-chlorophenyl)propanoate] | 80% | 100% | 100% | 100% | – | – | – | –
COC(=O)C[C@@H](NC(=O)[C@@H](NC(=O)OC(C)C)C(C)C)c1ccc(Cl)cc1 (racemic) [Compound 2, methyl (±)R-[3-(N-isopropoxycarbonyl-S-valinyl)amino]-3-(4-chlorophenyl)propanoate] | 100% | 100% | 100% | 100% | – | – | – | –
COC(=O)CC(NC(=O)[C@@H](NC(=O)OC(C)C)C(C)C)c1nc2ccccc2s1 (mixture of isomers) [Compound 8, methyl (±)RS-[3-(N-isopropoxycarbonyl-S-valinyl)amino]-3-(benzothiazol-2-yl)propanoate] | 70% | 92% | 100% | 100% | – | – | – | –
COC(=O)CC(NC(=O)[C@@H](NC(=O)OC(C)C)C(C)C)c1nc2cc(Cl)ccc2s1 (mixture of isomers) [Compound 9, methyl (±)RS-[3-(N-isopropoxycarbonyl-S-valinyl)amino]-3-(5-chlorobenzothiazol-2-yl)propanoate] | 90% | 100% | 100% | 100% | – | – | – | –
COC(=O)C[C@H](NC(=O)[C@@H](NC(=O)OC(C)C)C(C)C)c1ccc(Cl)cc1 [Compound 3, methyl (−)S-[3-(N-isopropoxycarbonyl-S-valinyl)amino]-3-(4-chlorophenyl)propanoate] | 65% | 85% | 100% | 100% | – | – | – | –
COC(=O)CC(NC(=O)[C@@H](NC(=O)OC(C)C)C(C)C)c1ccc(C)cc1 (stereo partly shown) [Compound 4, methyl RS-[3-(N-isopropoxycarbonyl-S-valinyl)amino]-3-(4-methylphenyl)propanoate] | 75% | 100% | 100% | 100% | – | – | – | –
CCc1ccc(C(CC(=O)OC)NC(=O)[C@@H](NC(=O)Oc2ccccc2)C(C)C)cc1 (stereo partly shown) [Compound 5, methyl RS-[3-(N-phenoxycarbonyl-S-valinyl)amino]-3-(4-ethylphenyl)propanoate] | – | – | – | – | 70% | 90% | 100% | 100%
COC(=O)CC(NC(=O)[C@@H](NC(=O)OC(C)C)C(C)C)c1ccc(OC)cc1 (stereo partly shown) [Compound 6, methyl RS-[3-(N-isopropoxycarbonyl-S-valinyl)amino]-3-(4-methoxyphenyl)propanoate] | 65% | 92% | 100% | 100% | – | – | – | –
COC(=O)CC(NC(=O)[C@@H](NC(=O)OC(C)C)C(C)C)c1ccc(C#N)cc1 (stereo partly shown) [Compound 7, methyl RS-[3-(N-isopropoxycarbonyl-S-valinyl)amino]-3-(4-cyanophenyl)propanoate] | 67% | 90% | – | 100% | – | – | – | –
COC(=O)CC(NC(=O)[C@@H](NC(=O)OC(C)(C)C)C(C)C)c1ccccc1 (stereo partly shown) [Reference 1, reference compound] | 0% | 20% | 90% | 100% | – | – | – | –
COC(=O)CC(NC(=O)[C@@H](NC(=O)OC(C)(C)C)C(C)C)c1ccc(Cl)cc1 (stereo partly shown) [Reference 2, reference compound] | 30% | 65% | 88% | 100% | – | – | – | –
COC(=O)CC(NC(=O)[C@@H](NC(=O)OC(C)C)C(C)C)c1ccccc1 (stereo partly shown) [Reference 3, reference compound] | 10% | 55% | 91% | 100% | – | – | – | –
COC(=O)C(C)(C)C(NC(=O)[C@@H](NC(=O)OC(C)C)C(C)C)c1ccccc1 (stereo partly shown) [Reference 4, reference compound] | 15% | 55% | 75% | 90% | – | – | – | –
CC(C)OC(=O)CC(NC(=O)[C@@H](NC(=O)OC(C)C)C(C)C)c1ccccc1 (stereo partly shown) [Reference 5, reference compound] | 0% | 15% | 75% | 96% | – | – | – | –
